Test results as given in patent US20210038732A1, “ANTICANCER MICRORNA AND LIPID FORMULATIONS THEREOF” (INTERNA TECHNOLOGIES B.V., priority 2018, published 2021).

System: 4T1
Experiment: Cell motility, Boyden chamber assay
Type: cell-based, mouse
Settings: 10 nM
Method: To check the migratory ability of cells, a Boyden Chamber assay was performed, which is based on a chamber of two medium-filled compartments separated by a […] pore size membrane (BD falcon). In this assay, depending on cell type 60,000-120,000 cells were seeded in the upper compartment of the membrane in serum free medium and were allowed to migrate through the pores of the membrane into the lower compartment, in which serum is present in the media. The serum acts as a chemoattractant. After an appropriate incubation time, the membrane between two compartments was fixed, stained and 6 different images from each membrane were taken. The number of migratory cells were counted using Image J analysis.
Different biological effects of miRNA-193a-3p have been tested in various cancer cell lines (see Table 13). For this, various cells were treated with miRNA-193a at different concentrations (1, 3, 10 nM). For all experiments controls (untreated, mock and scrambled) were measured. All assays were performed at 24h, 48h and 72h time points. […] All the results have been quantified and normalized to the mock control.
miRNA-193a treatment in various cancer cell lines decreased cell viability over time as measured by either an MTS assay or by cell count. It enhanced apoptosis induction over time as measured by a caspase 3/7 apoptosis assay. […]

miRNA-193a: duplex of the miRNA-193a-3p of SEQ ID NO: 218 (mimic, sense) with antisense strand SEQ ID NO: 219; naked in vitro, formulated in vivo (sense UGGGACUUUGUAGGCCAGUUTT; antisense AACUGGCCUACAAAGUCCCAGU; chemistry not given here; listed as Homo sapiens)
Motility (18 to 24 h): ↓
